Measured values from paper PMC10747602, “Dose Response, Dosimetric, and Metabolic Evaluations of Replacement PFAS Perfluoro-(2,5,8-trimethyl-3,6,9-trioxadodecanoic) Acid (HFPO-TeA)” (Toxics, 2023).
Values joined by “and” are separate entries in the source; they are usually repeats but may differ in a detail not shown here. Equal entries are not always repeated. Where two headings read alike, the source gives them in different places.

Assays:
[1] = In vitro-in vivo extrapolation (IVIVE) to estimate Css, human; details: for Css / Css (steady-state concentration, plasma): IVIVE, BW 70 kg; for Css: ID 0.042 mg/kg/hr; for Css (steady-state concentration, plasma): intake dosage 1 mg/kg/day; for fraction unbound: blood, fub=fup/(1-hemocrit ref value), hematocrit 0.45; for Clint: scaled (HPGL 110, Vl 1596 g)
Method: (§1) Fraction unbound (fu) in plasma (fup) and percent stability calculations are detailed in Supplementary Text S10. Hepatic clearance, the fu in blood (fub) (fu in plasma adjusted for blood:plasma partitioning), and renal clearance were used to derive the steady-state concentration (Css) of each compound that will be used for in vitro–in vivo extrapolation (IVIVE). Renal clearance was calculated using the glomerular filtration rate (a species-dependent constant) and the fub. The Css calculation is detailed in Supplementary Text S11.
(§2) Linear regression analysis in conjunction […]
(§3) cells in the Clint equation. […]
(§4) concentration by the T300 min concentration (Equation E). Chemical stability in plasma was assessed […]
(§5) (F) Percent Stability = T300minutesT60minutes∗100 […]
(§6) blood (fub) of the parent compound. The Clhepatic calculation is shown in the second part of the denominator of Equation G; it is the product of the species dependent liver blood flow constant, the fub of the parent compound, and the experimentally derived intrins ic clearance (s hown in Equation D) divided by the sum these three values. All values used in Equation G are for first order conditions of metabolism in the liver. All calculations, scalars, and species dependent values used to conduct the Css calculation to facilitate in vitro-in vivo extrapolation (IVIVE) are provided Table S19 within the Excel worksheet, the tab […]
(§7) Based on the principle of reverse dosimetry, the Css values derived from IVIVE will be u sed as conversion factors to generate AEDs according to Equation H. In this equation, the AED is linearly related to the in vitro concentration and inversely related to the Css. It is only valid for first-order metabolism that is expected at ambient exposure levels.
(§8) (H) AED ൮ mgkg൲ = in vitro concentration (µM )

[2] = test system: Human plasma; test: Ultracentrifugation plasma protein binding assay, human plasma; format: in vitro ADME; details: 10000 nM; for Average Stability (T5hr/ T1hr): 37 °C; for Aqueous Fraction concentration: after ultracentrifugation; for Aqueous Fraction concentration / Fraction Unbound in plasma (fup) / Stability (T5hr/ T1hr) / Time 1 hr concentration / Time 5 hr concentration: replicates A-C
Method: (§9) Information on the chemicals and materials used in the plasma protein binding work can be found in Supplementary Text S10 and Table S3. Human and rodent plasma were evaluated for plasma protein binding using ultracentrifugation, as previously described. Working solutions of 3 mM of HFPO-DA, HFPO-TA, and HFPO-TeA were prepared separately in ethanol, with each working solution containing 3 mM of testosterone (Sigma-Aldrich; ≥98% pure) as a reference compound for assay performance. An aliquot of each stock solution (13.3 µL) was added to separate 15 mL tubes with 3.987 mL of plasma for a final assay concentration of 10 µM. The plasma solutions were incubated at 37 °C and 125 rpm for 60 min. One-hour stability samples (T60 min) were drawn in triplicate and diluted in four volumes of plasma ultrafiltrate. Aliquots (1 mL) from each plasma solution were drawn in triplicate and transferred to polycarbonate tubing. These samples underwent ultracentrifugation (Beckman OptimaMax; Beckman Coulter Inc., Brea, CA, USA) at 850,000× g for 4 h at 37 °C.
(§10) The remaining plasma solutions were returned for incubation at 37 °C and 125 rpm for an additional 4 h. Five-hour stability samples (T300 min) were then drawn in triplicate and diluted in four volumes of plasma ultrafiltrate. After ultracentrifugation, the aqueous fraction (AF) was collected by transferring the supernatant to a new tube and diluting in an equal volume of plasma for matrix matching. All samples were combined with 3 volumes of ice-cold ACN containing 16 ng/mL of ^13C3-HFPO-DA and 16 ng/mL of ^13C-Testosterone (Cambridge Isotope Laboratories; 98% pure). Samples were vigorously mixed, stored for 10 min at −20 °C, and then centrifuged at 12,000× g for 10 min at 4 °C. Supernatants were collected then stored at −70 °C prior to analysis.
as §1
(§11) The gradient is available in Table S11. […]
(§12) Chemical stability in plasma was assessed
(§13) (F) Percent Stability = T300minutesT60minutes∗100

[3] = as above; format: in vitro ADME; details: both sexes, human
Method: as §9, §10, §1, §11, §12, §13

[4] = In vitro-in vivo extrapolation (IVIVE) to estimate Css, rat; details: for Css / Css (steady-state concentration, plasma): IVIVE, BW 0.25 kg; for Css: ID 0.042 mg/kg/hr; for Css (steady-state concentration, plasma): intake dosage 1 mg/kg/day; for fraction unbound at 300 min: Sprague Dawley, blood, fub=fup/(1-hemocrit ref value), hematocrit 0.439; for Clint: scaled (HPGL 117, Vl 9.5 g)
Method: as §1, §2, §3, §4, §5, §6, §7, §8

[5] = plasma, 10 µM, ultracentrifugation, read-out: Experimental fup (average fraction unbound in plasma)
[6] = pooled human plasma, 10000 nM, replicates A-C, read-out: Fraction Unbound in plasma (fup)

SMILES | Clhep (hepatic clearance) [1] [L/h] | Css [1] [ng/mL] | Css (steady-state concentration, plasma) [1] | fraction unbound [1] | Clint [1] [µL/min] | Average Stability (T5hr/ T1hr) [2] | Aqueous Fraction concentration [2] | Fraction Unbound in plasma (fup) [2] | Stability (T5hr/ T1hr) [2] | Time 1 hr concentration [2] | Time 5 hr concentration [2] | fraction unbound at 4 h, 10 µM [3, 5] | fraction unbound at 4 h, 10 µM [3, 6] | Clhep (hepatic clearance) [4] [L/h] | Css [4] [ng/mL] | Css (steady-state concentration, plasma) [4] | fraction unbound at 300 min [4] | Clint [4] [µL/min]
O=C(O)C(F)(OC(F)(F)C(F)(F)C(F)(F)F)C(F)(F)F (stereo not drawn) [HFPO-DA, perfluoro-2-methyl-3-oxahexanoic acid] | 0 | 24670 | 74.75 µM and 74.7454 µM | 0.0178 | 0 | 0.9905 | 72.64 nM and 73.60 nM and 65.28 nM | 0.0095 | 0.9836 and 1.1438 and 0.8441 | 7.4664 µM and 6.7536 µM and 7.8224 µM | 7.344 µM and 7.7248 µM and 6.6032 µM | 0.0098 | 0.0099 | 0 | 2400 | 7.27 µM and 7.2674 µM | 0.0547 | 0
O=C(O)C(F)(OC(F)(F)C(F)(OC(F)(F)C(F)(F)C(F)(F)F)C(F)(F)F)C(F)(F)F (stereo not drawn) [HFPO-TA, perfluoro-(2,5-dimethyl-3,6-dioxanonanoic) acid] | 0 | 186410 | 375.76 µM and 375.7648 µM | 0.0024 | 0 | 1.0308 | 8.96 nM and 9.6 nM and 15.04 nM | 0.0011 and 0.0015 | 0.7676 and 1.2763 and 1.0484 | 8.7016 µM and 7.0496 µM and 9.7592 µM | 6.6792 µM and 8.9976 µM and 10.232 µM | 0.0013 | 0.0013 | 0 | 40600 | 81.84 µM and 81.8399 µM | 0.0032 | 0
O=C(O)C(F)(OC(F)(F)C(F)(OC(F)(F)C(F)(OC(F)(F)C(F)(F)C(F)(F)F)C(F)(F)F)C(F)(F)F)C(F)(F)F (stereo not drawn) [HFPO-TeA, perfluoro-(2,5,8-trimethyl-3,6,9-trioxadodecanoic) acid] | 0 | 19420 | 29.34 µM and 29.3351 µM | 0.0226 | 0 | 1.0363 | 83.20 nM and 80 nM and 121.60 nM | 0.0109 and 0.0142 | 0.9304 and 0.9406 and 1.2379 | 7.36 µM and 7.808 µM and 6.928 µM | 6.848 µM and 7.344 µM and 8.576 µM | 0.0124 | 0.0121 | 0 | 12550 | 19 µM and 18.96 µM and 18.9581 µM | 0.0105 | 0
